From patent US11040028B2, “Penicinotam derivative, preparation method and use thereof” (OCEAN UNIVERSITY OF CHINA, priority 2017, dated 2021)

How the values were obtained:
Format in all cases: cell-based
[1] = tested on: mouse macrophages (RAW264.7); assay: Lipopolysaccharide-induced NO secretion in macrophages (Griess); settings: Mus musculus, RAW264.7, 24 h, RAW264.7, LPS 1 μg/ml, a/b isomers given as first/second symbol, read-out: IC50 (μM), inhibition of lipopolysaccharide-induced NO secretion in macrophages
Procedure, shortened: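 RAW264.7 macrophages in DMEM with 10% FBS received test samples at several concentrations and were stimulated with 1 μg/ml LPS for 24 h. NO in the supernatant was measured with the Griess reagent at 548 nm, […].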

[2] = tested on: human dermal fibroblasts CCC-ESF-1; assay: Anti-fibrosis activity test: inhibition of proliferation of human dermal fibroblasts CCC-ESF-1 (CCK-8); settings: Fibroblast
Procedure, shortened: (§1)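 Cells seeded at 2×10^4 cells/mL, adhered 24 h, then exposed to compound concentrations in triplicate for 48 h at 37° C, 5% CO2. CCK-8 added for 2 h, absorbance at 450 nm; inhibition = (1−Ai/Ao)×100% versus blank control, IC50 calculated.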

[3] = tested on: human lung fibroblasts HFL1; assay: Anti-fibrosis activity test: inhibition of proliferation of human lung fibroblasts HFL1 (CCK-8); settings: Homo sapiens, HFL1, 48 h
Procedure, shortened: as §1

[4] = tested on: cardiac fibroblast RAT-iCell-C002; assay: Anti-fibrosis activity test: inhibition of proliferation of cardiac fibroblast RAT-iCell-C002 (CCK-8); settings: Cardiac fibroblast, 48 h
Procedure, shortened: as §1

[5] = tested on: human hepatic stellate cells LX-2; assay: Anti-fibrosis activity test: inhibition of proliferation of human hepatic stellate cells LX-2 (CCK-8); settings: Homo sapiens, 48 h
Procedure, shortened: as §1

[6] = tested on: human embryonic lung fibroblast IMR-90; assay: Anti-fibrosis activity test: inhibition of proliferation of human embryonic lung fibroblast IMR-90 (CCK-8)
Procedure, shortened: as §1

BHK-21 cells = assay: Anti-fibrosis activity test: inhibition of BHK-21 cell proliferation (CCK-8); settings: Mesocricetus auratus, BHK-21, 48 h
Procedure, shortened: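 Read-out: CCK-8 absorbance at 450 nm after 2 h, giving proliferation inhibition (1−Ai/Ao)×100% versus blank control, from which IC50 was derived. Cells had been treated with compounds for 48 h after 24 h adherence at 37° C. Pirfenidone served as positive control.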

[7] = tested on: human fibrosarcoma cells HT-1080; assay: Anti-fibrosis activity test: inhibition of proliferation of human fibrosarcoma cells HT-1080 (CCK-8); settings: Homo sapiens, HT-1080, 48 h
Procedure, shortened: as §1

[8] = human dermal fibroblasts CCC-ESF-1, CCK-8, 48 hours
[9] = human lung fibroblasts HFL1, CCK-8, 48 hours
[10] = cardiac fibroblast RAT-iCell-C002, CCK-8, 48 hours
[11] = human hepatic stellate cells LX-2, CCK-8, 48 hours
[12] = human embryonic lung fibroblast IMR-90, CCK-8, 48 hours
[13] = CCK-8, 48 hours after administration
[14] = human fibrosarcoma cells HT-1080, CCK-8, 48 hours
[15] = Homo sapiens, CCC-ESF-1 cells, 48 h, CCK-8
[16] = Homo sapiens, IMR-90 cells, 48 h, CCK-8

| IC50 [1] [µM] | IC50 [7, 14] [mM] | IC50 ([7]; HT-1080 cells, 48 h, CCK-8) [mM] | Compound | IC50 [2, 8] [mM] | IC50 [3, 9] [mM] | IC50 [4, 10] [mM] | IC50 [5, 11] [mM] | IC50 [6, 12] [mM] | IC50 (BHK-21 cells; [13]) [mM] | IC50 [2, 15] [mM] | IC50 ([3]; HFL1 cells, 48 h, CCK-8) [mM] | IC50 ([4]; RAT-iCell-C002 cells, CCK-8) [mM] | IC50 ([5]; LX-2, 48 h, LX-2 cells, CCK-8) [mM] | IC50 [6, 16] [mM] | IC50 (BHK-21 cells; 48 h, CCK-8) [mM] |
| --- | --- | --- | --- | --- | --- | --- | --- | --- | --- | --- | --- | --- | --- | --- | --- |
| 1 to 10 | 0.05 to 5 | – | N#Cc1ccc2c(c1)c(=O)c1c(n2-c2ccc(Cl)cc2)-c2cccn2C1=O [Compound 210a, 4-(4-Chlorophenyl)-9,10-dioxo-4,10-dihydro-9H-pyrrolizino[1,2-b]quinoline-7-carbonitrile] | 0.05 to 5 | 0.05 to 5 | 0.05 to 5 | 0.05 to 5 | 0.05 to 5 | 0.05 to 5 | – | – | – | – | – | – |
| 1 to 10 | 5 to 20 | – | O=C1c2c(n(Cc3ccc(Cl)cc3)c3c(C(F)(F)F)cccc3c2=O)-c2cccn21 [Compound 450a, 4-(4-Chlorobenzyl)-5-(trifluoromethyl)-9H-pyrrolizino[1,2-b]quinoline-9,10(4H)-dione] | 0.05 to 5 | 0.05 to 5 | 0.05 to 5 | 0.05 to 5 | 0.05 to 5 | 0.05 to 5 | – | – | – | – | – | – |
| 1 to 10 | 0.05 to 5 | – | O=C1c2c(nc3cccc(Cl)c3c2OCc2ccc(F)cc2)-c2cccn21 [Compound 474b, 8-chloro-9-((4-fluorobenzyl)oxy)-10H-pyrrolizino[1,2-b]quinolin-10-one] | 0.05 to 5 | 0.05 to 5 | 5 to 20 | 0.05 to 5 | 0.05 to 5 | 0.05 to 5 | – | – | – | – | – | – |
| 1 to 10 | 0.05 to 5 | – | N#Cc1ccc2nc3c(c(Oc4ccc(Cl)cc4)c2c1)C(=O)n1cccc1-3 [Compound 210b, 9-(4-chlorophenoxy)-10-oxo-10H-pyrrolizino[1,2-b]quinoline-7-carbonitrile] | 0.05 to 5 | 0.05 to 5 | 0.05 to 5 | 0.05 to 5 | 0.05 to 5 | 0.05 to 5 | – | – | – | – | – | – |
| 1 to 10 | 0.05 to 5 | – | O=C1c2c(nc3ccc(OC(F)(F)F)cc3c2Oc2ccc(Cl)cc2)-c2cccn21 [Compound 300b, 9-(4-chlorophenoxy)-7-(trifluoromethoxy)-10H-pyrrolizino[1,2-b]quinolin-10-one] | 0.05 to 5 | 0.05 to 5 | 0.05 to 5 | 0.05 to 5 | 0.05 to 5 | 0.05 to 5 | – | – | – | – | – | – |
| 0.1 to 1 | 0.05 to 5 | – | O=C1c2c(nc3ccc(F)cc3c2O)-c2cccn21 [Compound 156b, 7-fluoro-9-hydroxy-10H-pyrrolizino[1,2-b]quinolin-10-one] | 0.05 to 5 | < 0.05 | 0.05 to 5 | 0.05 to 5 | 0.05 to 5 | 0.05 to 5 | – | – | – | – | – | – |
| 1 to 10 | 0.05 to 5 | – | O=C1c2c(nc3c(F)cccc3c2OCc2ccc(F)cc2)-c2cccn21 [Compound 452b, 5-fluoro-9-((4-fluorobenzyl)oxy)-10H-pyrrolizino[1,2-b]quinolin-10-one] | 0.05 to 5 | 0.05 to 5 | 0.05 to 5 | 0.05 to 5 | 0.05 to 5 | 0.05 to 5 | – | – | – | – | – | – |
| 1 to 10 | 0.05 to 5 | – | O=C1c2c(nc3cccc(C(F)(F)F)c3c2OCc2cccc(Cl)c2)-c2cccn21 [Compound 466b, 9-((3-chlorobenzyl)oxy)-8-(trifluoromethyl)-10H-pyrrolizino[1,2-b]quinolin-10-one] | 0.05 to 5 | 0.05 to 5 | 0.05 to 5 | 0.05 to 5 | 0.05 to 5 | 0.05 to 5 | – | – | – | – | – | – |

The next lines start with the molecule.

| Compound | IC50 [1] [µM] | IC50 [7, 14] [mM] | IC50 ([7]; HT-1080 cells, 48 h, CCK-8) [mM] | IC50 [2, 8] [mM] | IC50 [3, 9] [mM] | IC50 [4, 10] [mM] | IC50 [5, 11] [mM] | IC50 [6, 12] [mM] | IC50 (BHK-21 cells; [13]) [mM] | IC50 [2, 15] [mM] | IC50 ([3]; HFL1 cells, 48 h, CCK-8) [mM] | IC50 ([4]; RAT-iCell-C002 cells, CCK-8) [mM] | IC50 ([5]; LX-2, 48 h, LX-2 cells, CCK-8) [mM] | IC50 [6, 16] [mM] | IC50 (BHK-21 cells; 48 h, CCK-8) [mM] |
| --- | --- | --- | --- | --- | --- | --- | --- | --- | --- | --- | --- | --- | --- | --- | --- |
| C=CCn1c2c(c(=O)c3cc(F)c(N4CCNCC4)cc31)C(=O)n1cccc1-2 [Compound 349a, 4-Allyl-7-fluoro-6-(piperazin-1-yl)-9H-pyrrolizino[1,2-b]quinoline-9,10(4H)-dione] | 1 to 10 | 0.05 to 5 | – | 0.05 to 5 | 0.05 to 5 | 0.05 to 5 | 0.05 to 5 | 0.05 to 5 | 0.05 to 5 | – | – | – | – | – | – |
| O=C1c2c([nH]c3cccc(O)c3c2=O)-c2cccn21 [Compound 470a, 8-Hydroxy-9H-pyrrolizino[1,2-b]quinoline-9,10(4H)-dione] | 0.1 to 1 | 0.05 to 5 | – | 0.05 to 5 | 0.05 to 5 | 0.05 to 5 | 0.05 to 5 | 0.05 to 5 | 0.05 to 5 | – | – | – | – | – | – |
| O=C1c2c(c(=O)c3ccccc3n2CCCCN2CCOCC2)-c2cccn21 [Compound 789a, 6-(4-Morpholinobutyl)-5H-pyrrolizino[2,1-b]quinoline-5,11(6H)-dione] | 1 to 10 | – | 0.05 to 5 | – | – | – | – | – | – | 0.05 to 5 | 0.05 to 5 | 0.05 to 5 | 0.05 to 5 | 0.05 to 5 | 0.05 to 5 |
| Cc1ccc2c(O)c3c(nc2c1)C(=O)n1cccc1-3 [Compound 778b, 11-hydroxy-8-methyl-5H-pyrrolizino[2,1-b]quinolin-5-one] | 1 to 10 | – | 0.05 to 5 | – | – | – | – | – | – | 0.05 to 5 | 0.05 to 5 | 0.05 to 5 | 0.05 to 5 | 0.05 to 5 | 0.05 to 5 |
| Cc1ccc(C)c2c(O)c3c(nc12)C(=O)n1cccc1-3 [Compound 783b, 11-hydroxy-7,10-dimethyl-5H-pyrrolizino[2,1-b]quinolin-5-one] | 1 to 10 | – | 0.05 to 5 | – | – | – | – | – | – | 0.05 to 5 | 0.05 to 5 | 0.05 to 5 | 0.05 to 5 | 0.05 to 5 | 0.05 to 5 |
| CCOc1c2c(nc3cc(N4CCNCC4)c(F)cc13)-c1cccn1C2=O [Compound 329b, 9-ethoxy-7-fluoro-6-(piperazin-1-yl)-10H-pyrrolizino[1,2-b]quinolin-10-one] | 1 to 10 | 0.05 to 5 | – | 0.05 to 5 | 0.05 to 5 | < 0.05 | 0.05 to 5 | 0.05 to 5 | 0.05 to 5 | – | – | – | – | – | – |
| O=C1c2c(n(Cc3ccc(F)cc3)c3c(F)c(N4CCNCC4)ccc3c2=O)-c2cccn21 [Compound 485a, 5-Fluoro-4-(4-fluorobenzyl)-6-(piperazin-1-yl)-9H-pyrrolizino[1,2-b]quinoline-9,10(4H)-dione] | 10 to 50 | 0.05 to 5 | – | 0.05 to 5 | 0.05 to 5 | 0.05 to 5 | 0.05 to 5 | 0.05 to 5 | 0.05 to 5 | – | – | – | – | – | – |
| Cc1ccc2[nH]c3c(c(=O)c2c1)-c1cccn1C3=O [Compound 777a, 9-Methyl-5H-pyrrolizino[2,1-b]quinoline-5,11(6H)-dione] | 10 to 50 | – | 0.05 to 5 | – | – | – | – | – | – | 0.05 to 5 | 0.05 to 5 | 0.05 to 5 | 0.05 to 5 | 0.05 to 5 | < 0.05 |
| O=C1c2c(n(Cc3ccc(F)cc3)c3cccc(Cl)c3c2=O)-c2cccn21 [Compound 474a, 8-Chloro-4-(4-fluorobenzyl)-9H-pyrrolizino[1,2-b]quinoline-9,10(4H)-dione] | 1 to 10 | 0.05 to 5 | – | 0.05 to 5 | 0.05 to 5 | 0.05 to 5 | 0.05 to 5 | 0.05 to 5 | < 0.05 | – | – | – | – | – | – |
| Cn1c2c(c(=O)c3cc(F)c(N4CCNCC4)cc31)C(=O)n1cccc1-2 [Compound 361a, 7-Fluoro-4-methyl-6-(piperazin-1-yl)-9H-pyrrolizino[1,2-b]quinoline-9,10(4H)-dione] | 1 to 10 | < 0.05 | – | 0.05 to 5 | 0.05 to 5 | 0.05 to 5 | 0.05 to 5 | 0.05 to 5 | 0.05 to 5 | – | – | – | – | – | – |
| O=C1c2c(n(Cc3cccc(F)c3)c3cccc(F)c3c2=O)-c2cccn21 [Compound 475a, 8-Fluoro-4-(3-fluorobenzyl)-9H-pyrrolizino[1,2-b]quinoline-9,10(4H)-dione] | 1 to 10 | 5 to 20 | – | 0.05 to 5 | 0.05 to 5 | 0.05 to 5 | 0.05 to 5 | 0.05 to 5 | 0.05 to 5 | – | – | – | – | – | – |
| O=C1c2c([nH]c3ccc(F)cc3c2=O)-c2cccn21 [Compound 156a, 7-Fluoro-9H-pyrrolizino[1,2-b]quinoline-9,10(4H)-dione] | 1 to 10 | 0.05 to 5 | – | 0.05 to 5 | < 0.05 | 0.05 to 5 | < 0.05 | 0.05 to 5 | 0.05 to 5 | – | – | – | – | – | – |
